Measured values taken from patent US7655624B2, “Peptide and peptide mimetic conjugates with integrin-inhibitor properties” (Biomet Deutschland GmbH, priority 2000, dated 2010).

Test system: mouse MC3T3 H1 osteoblast cultures
Assay: Cell adhesion test on RGD-peptide-coated material surfaces
Assay type: cell-based
Details: adhered cells/inoculated cells x 100; 50 000 cells/cm^2 inoculated on peptide-coated material surface; serum-free medium, 37° C./95% atmospheric humidity, one hour
Protocol: The shaped articles are transferred into 48 wells (Costar, “non-tissue culture treated” Art. No. 3574). To attach the bioactive, cell adhesion-mediating molecules B (where B can be a cyclopeptide, peptide mimetic or linear peptide according to claim 2) to the prepared shaped articles, molecule B-containing stock solutions (“B solutions”) are prepared in a final concentration of 1 mM in one of the aqueous buffers Tris-HCl (10 mM, pH 8.7), Tris-HClO4 (10 mM, pH 8.7) or PBS, pH 7.4. Concentration series with the “B solutions” final concentrations of in each case 1 nm, 10 nm, 100 nm, 1 μm, 10 μm and 100 μm are then prepared by dilution with PBS, pH 7.4. The shaped articles are each covered with 250 μl of the respective B solution and then incubated at room temperature for 18-24 hours. To remove unbound B molecules, the samples are washed three times with PBS, pH 7.4, and stored in PBS, pH 7.4, at 4° C. overnight. […]
The adhesion of mouse MC3T3 H1 osteoblast cultures in vitro to RGD-peptide-coated material surfaces was investigated. In this test, 50 000 cells/cm^2 were inoculated and, after incubation in serum-free medium at 37° C./95% atmospheric humidity for one hour, the proportion of adhered cells was determined. […]

Substance: Cyclo-(Arg-Gly-Asp-DPhe-Lys (N^εH[CO—(CH2)5—NH]2-Lys-[Lys-(CO—CH2—CH2—PO3H2)2]2)) [Example 4]
- cell adhesion rate: 75%

Substance: Cyclo-(Arg-Gly-Asp-DPhe-Lys (N^εH—[CO—(CH2)5—NH]3-Lys-[Lys-(CO—CH2—CH2—PO3H2)2]2) [Example 5]
- cell adhesion rate: 62%
